Data: ChEMBL document CHEMBL5465560, “Selectivity Literature for EUbOPEN Chemogenomic Library” (2024)
Values belong to the compound of their own block, whether it stands above or below them.

What was measured:
[1] = biological target: Fibroblast growth factor receptor 1 (Homo sapiens, UniProt P11362); details: at 10 µM
[2] = biological target: Ribosomal protein S6 kinase alpha-4 (Homo sapiens) (UniProt O75676); details: at 10 µM
[3] = system: Tyrosine-protein kinase ABL1 (Homo sapiens), P00519 [F317I]; experiment: Selectivity interaction (KinomeScan (DiscoverX)) EUB0001049a ABL1; details: at 1 µM
Tyrosine-protein kinase ABL1 (Homo sapiens), P00519 [F317I], sequence (P00519 whole entry F317I): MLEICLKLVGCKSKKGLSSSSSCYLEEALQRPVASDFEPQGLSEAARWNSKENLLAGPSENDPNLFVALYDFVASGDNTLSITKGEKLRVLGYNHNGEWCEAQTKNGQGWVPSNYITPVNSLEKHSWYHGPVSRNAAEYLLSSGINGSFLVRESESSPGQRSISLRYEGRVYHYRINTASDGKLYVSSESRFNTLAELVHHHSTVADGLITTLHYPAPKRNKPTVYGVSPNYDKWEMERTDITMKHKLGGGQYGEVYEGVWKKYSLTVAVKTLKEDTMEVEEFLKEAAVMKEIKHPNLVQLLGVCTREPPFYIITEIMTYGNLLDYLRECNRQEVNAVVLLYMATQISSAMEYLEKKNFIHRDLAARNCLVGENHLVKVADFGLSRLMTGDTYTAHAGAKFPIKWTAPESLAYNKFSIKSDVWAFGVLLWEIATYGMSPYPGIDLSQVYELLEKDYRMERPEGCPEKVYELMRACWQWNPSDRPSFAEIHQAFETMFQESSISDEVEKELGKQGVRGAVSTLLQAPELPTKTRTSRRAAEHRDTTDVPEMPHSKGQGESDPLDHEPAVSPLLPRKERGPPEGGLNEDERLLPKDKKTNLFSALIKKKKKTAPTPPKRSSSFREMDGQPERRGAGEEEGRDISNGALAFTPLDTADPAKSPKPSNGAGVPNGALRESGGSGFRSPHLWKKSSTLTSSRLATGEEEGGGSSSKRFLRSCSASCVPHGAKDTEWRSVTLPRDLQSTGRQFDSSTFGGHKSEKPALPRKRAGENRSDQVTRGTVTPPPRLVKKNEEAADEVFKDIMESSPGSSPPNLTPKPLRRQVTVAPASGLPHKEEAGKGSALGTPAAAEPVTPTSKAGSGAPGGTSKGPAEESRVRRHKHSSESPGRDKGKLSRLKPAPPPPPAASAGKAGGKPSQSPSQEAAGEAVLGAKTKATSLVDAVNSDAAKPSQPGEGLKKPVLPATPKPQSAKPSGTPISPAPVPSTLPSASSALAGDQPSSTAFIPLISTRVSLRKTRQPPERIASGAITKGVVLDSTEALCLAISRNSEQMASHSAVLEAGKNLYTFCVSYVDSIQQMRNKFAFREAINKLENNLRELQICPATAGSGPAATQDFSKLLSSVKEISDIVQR

[4] = biological target: Wee1-like protein kinase (Homo sapiens) (UniProt P30291); experiment: Selectivity interaction (KinomeScan (DiscoverX)) EUB0001049a WEE1; details: at 1 µM
Wee1-like protein kinase (Homo sapiens), sequence (P30291 whole entry, looked up): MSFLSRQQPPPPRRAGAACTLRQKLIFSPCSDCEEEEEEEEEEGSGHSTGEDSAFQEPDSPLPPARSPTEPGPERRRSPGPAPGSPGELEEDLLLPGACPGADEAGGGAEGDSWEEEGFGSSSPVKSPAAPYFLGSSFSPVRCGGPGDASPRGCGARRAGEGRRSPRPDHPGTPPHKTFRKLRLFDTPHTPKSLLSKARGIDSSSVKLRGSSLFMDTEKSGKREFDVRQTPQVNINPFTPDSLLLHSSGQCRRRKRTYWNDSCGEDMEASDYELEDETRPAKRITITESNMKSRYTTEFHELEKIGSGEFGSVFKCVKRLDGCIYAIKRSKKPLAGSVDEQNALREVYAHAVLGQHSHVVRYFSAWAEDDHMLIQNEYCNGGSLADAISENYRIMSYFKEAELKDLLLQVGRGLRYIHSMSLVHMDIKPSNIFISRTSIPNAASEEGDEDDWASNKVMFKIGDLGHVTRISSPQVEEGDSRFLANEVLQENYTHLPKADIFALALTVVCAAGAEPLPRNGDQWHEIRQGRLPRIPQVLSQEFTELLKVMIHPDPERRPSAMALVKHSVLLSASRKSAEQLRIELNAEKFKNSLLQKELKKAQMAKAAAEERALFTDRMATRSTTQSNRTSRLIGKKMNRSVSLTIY

[5] = biological target: T1, Dual specificity mitogen-activated protein kinase kinase 3 (Homo sapiens) (UniProt P46734); experiment: Selectivity interaction (Kinase panel (Invitrogen)) EUB0000639a MAP2K3; details: at 200 nM
T1 sequence (whole entry): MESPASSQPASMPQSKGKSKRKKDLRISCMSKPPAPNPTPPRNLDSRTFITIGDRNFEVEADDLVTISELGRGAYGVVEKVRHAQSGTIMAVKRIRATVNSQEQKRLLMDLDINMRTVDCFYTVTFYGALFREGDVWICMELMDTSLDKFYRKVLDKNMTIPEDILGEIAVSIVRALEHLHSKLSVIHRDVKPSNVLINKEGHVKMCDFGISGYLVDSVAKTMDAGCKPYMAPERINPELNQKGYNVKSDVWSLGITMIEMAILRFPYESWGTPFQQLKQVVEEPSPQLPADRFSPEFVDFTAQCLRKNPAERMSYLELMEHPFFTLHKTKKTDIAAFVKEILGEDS

[6] = biological target: Calcium/calmodulin-dependent protein kinase kinase 1 (Homo sapiens) (UniProt Q8N5S9); experiment: Selectivity interaction (KinomeScan (DiscoverX)) EUB0000595a CAMKK1; details: at 10 µM
Calcium/calmodulin-dependent protein kinase kinase 1 (Homo sapiens), sequence (Q8N5S9 whole entry, looked up): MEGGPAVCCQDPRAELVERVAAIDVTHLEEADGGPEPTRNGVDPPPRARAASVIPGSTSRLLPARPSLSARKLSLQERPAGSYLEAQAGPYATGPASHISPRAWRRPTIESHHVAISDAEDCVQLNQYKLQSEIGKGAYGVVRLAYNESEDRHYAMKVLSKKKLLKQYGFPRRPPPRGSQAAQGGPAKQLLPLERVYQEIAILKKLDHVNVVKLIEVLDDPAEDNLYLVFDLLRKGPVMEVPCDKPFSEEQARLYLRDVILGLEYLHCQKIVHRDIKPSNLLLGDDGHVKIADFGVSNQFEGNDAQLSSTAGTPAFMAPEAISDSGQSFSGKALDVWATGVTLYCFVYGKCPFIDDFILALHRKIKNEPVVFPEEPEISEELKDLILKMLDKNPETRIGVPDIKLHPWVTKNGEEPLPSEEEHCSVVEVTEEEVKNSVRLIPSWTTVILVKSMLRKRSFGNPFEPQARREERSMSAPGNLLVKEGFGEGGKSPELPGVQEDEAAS

[7] = biological target: T2, Tyrosine-protein kinase ITK/TSK (Homo sapiens) (UniProt Q08881); details: at 10 µM
T2 sequence (whole entry): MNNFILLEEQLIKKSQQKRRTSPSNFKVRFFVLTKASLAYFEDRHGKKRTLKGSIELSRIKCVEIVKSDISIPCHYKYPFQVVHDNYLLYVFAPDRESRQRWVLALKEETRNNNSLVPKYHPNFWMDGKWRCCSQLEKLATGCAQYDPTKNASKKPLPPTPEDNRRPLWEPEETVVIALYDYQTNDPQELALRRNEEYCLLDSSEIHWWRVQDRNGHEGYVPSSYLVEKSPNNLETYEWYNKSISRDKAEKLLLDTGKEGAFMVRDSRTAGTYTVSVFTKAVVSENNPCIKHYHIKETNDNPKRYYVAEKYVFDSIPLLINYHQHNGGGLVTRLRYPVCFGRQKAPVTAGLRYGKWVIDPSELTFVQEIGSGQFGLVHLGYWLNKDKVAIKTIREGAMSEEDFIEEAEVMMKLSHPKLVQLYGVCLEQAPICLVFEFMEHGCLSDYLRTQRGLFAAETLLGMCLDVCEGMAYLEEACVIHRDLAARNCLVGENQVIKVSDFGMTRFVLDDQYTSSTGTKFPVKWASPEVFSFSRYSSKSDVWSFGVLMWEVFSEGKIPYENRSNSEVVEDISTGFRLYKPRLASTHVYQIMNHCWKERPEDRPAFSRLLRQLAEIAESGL

[8] = biological target: Interleukin-1 receptor-associated kinase 1 (Homo sapiens) (UniProt P51617); experiment: Selectivity interaction (Upstate Kinase Profiler service (Millipore)) EUB0000056c IRAK1; details: at 1 µM
Interleukin-1 receptor-associated kinase 1 (Homo sapiens), sequence (P51617 whole entry, looked up): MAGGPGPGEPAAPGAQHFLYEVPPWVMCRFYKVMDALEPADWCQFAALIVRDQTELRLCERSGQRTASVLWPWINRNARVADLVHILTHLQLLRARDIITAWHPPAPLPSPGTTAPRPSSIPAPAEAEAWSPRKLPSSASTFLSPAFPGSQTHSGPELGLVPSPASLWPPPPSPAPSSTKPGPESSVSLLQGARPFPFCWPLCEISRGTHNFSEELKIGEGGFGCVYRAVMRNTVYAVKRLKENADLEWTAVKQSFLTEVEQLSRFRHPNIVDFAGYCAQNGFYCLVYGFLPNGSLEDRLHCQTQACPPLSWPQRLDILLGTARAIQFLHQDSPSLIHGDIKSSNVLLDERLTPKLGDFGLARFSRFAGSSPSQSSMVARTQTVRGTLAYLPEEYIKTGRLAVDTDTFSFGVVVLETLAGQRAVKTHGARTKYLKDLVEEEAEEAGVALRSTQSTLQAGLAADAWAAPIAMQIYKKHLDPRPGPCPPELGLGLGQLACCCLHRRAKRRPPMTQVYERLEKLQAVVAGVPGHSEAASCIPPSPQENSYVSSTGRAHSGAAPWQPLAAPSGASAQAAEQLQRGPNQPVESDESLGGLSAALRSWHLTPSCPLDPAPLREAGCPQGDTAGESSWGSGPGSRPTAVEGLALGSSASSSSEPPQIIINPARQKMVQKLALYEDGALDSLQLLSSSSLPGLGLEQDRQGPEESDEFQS

[9] = biological target: T3, Dual specificity mitogen-activated protein kinase kinase 7 (Homo sapiens) (UniProt O14733); experiment: Selectivity interaction (KinomeScan (DiscoverX)) EUB0000607a MAP2K7; details: at 10 µM
T3 sequence (whole entry): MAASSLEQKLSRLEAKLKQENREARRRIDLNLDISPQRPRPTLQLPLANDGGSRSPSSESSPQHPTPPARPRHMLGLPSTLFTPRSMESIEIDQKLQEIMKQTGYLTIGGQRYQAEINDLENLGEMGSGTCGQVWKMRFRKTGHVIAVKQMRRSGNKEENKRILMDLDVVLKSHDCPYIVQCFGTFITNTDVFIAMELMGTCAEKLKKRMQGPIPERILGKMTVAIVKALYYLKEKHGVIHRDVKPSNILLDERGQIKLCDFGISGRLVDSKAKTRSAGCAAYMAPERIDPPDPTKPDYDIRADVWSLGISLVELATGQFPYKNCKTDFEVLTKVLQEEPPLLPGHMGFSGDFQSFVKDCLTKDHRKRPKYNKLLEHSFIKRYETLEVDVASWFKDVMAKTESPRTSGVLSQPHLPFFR

[10] = biological target: T4, Aurora kinase A (Homo sapiens) (UniProt O14965); experiment: Selectivity interaction (KinomeScan (DiscoverX)) EUB0000666a STK6; details: at 10 µM
T4 sequence (whole entry): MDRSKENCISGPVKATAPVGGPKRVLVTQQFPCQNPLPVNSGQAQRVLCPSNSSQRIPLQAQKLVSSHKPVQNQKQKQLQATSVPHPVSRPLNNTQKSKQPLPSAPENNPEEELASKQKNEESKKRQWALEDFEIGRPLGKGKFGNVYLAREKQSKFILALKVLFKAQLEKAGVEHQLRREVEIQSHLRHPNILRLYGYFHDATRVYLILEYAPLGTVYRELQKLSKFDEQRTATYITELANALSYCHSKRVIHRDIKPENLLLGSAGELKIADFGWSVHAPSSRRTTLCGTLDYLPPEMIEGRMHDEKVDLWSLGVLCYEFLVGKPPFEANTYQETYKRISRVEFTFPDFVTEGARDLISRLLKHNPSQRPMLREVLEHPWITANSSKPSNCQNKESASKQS

Fibroblast growth factor receptor 1, sequence (P11362 22-822 limits assumed): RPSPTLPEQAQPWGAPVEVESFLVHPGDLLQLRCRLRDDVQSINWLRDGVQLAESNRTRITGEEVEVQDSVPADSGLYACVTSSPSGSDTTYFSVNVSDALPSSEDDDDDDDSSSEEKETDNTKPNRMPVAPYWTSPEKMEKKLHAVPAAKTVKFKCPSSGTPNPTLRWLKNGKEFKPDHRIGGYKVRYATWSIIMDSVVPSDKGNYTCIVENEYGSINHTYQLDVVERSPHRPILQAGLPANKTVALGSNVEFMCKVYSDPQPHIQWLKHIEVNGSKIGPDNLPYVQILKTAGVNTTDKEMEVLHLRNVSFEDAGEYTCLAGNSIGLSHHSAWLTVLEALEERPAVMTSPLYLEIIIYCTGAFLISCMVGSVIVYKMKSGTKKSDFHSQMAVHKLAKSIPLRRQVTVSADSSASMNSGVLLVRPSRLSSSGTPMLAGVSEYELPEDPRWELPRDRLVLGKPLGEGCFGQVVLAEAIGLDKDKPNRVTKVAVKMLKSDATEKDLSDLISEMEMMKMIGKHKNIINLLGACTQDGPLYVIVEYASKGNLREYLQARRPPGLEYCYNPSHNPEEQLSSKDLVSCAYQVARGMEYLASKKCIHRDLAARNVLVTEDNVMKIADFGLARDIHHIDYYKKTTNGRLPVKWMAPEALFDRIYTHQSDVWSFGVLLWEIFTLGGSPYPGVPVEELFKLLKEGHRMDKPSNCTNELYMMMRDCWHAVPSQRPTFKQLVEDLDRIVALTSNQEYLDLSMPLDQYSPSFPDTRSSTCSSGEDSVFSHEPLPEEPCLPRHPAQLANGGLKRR
Ribosomal protein S6 kinase alpha-4 (Homo sapiens), sequence (O75676 whole entry, looked up): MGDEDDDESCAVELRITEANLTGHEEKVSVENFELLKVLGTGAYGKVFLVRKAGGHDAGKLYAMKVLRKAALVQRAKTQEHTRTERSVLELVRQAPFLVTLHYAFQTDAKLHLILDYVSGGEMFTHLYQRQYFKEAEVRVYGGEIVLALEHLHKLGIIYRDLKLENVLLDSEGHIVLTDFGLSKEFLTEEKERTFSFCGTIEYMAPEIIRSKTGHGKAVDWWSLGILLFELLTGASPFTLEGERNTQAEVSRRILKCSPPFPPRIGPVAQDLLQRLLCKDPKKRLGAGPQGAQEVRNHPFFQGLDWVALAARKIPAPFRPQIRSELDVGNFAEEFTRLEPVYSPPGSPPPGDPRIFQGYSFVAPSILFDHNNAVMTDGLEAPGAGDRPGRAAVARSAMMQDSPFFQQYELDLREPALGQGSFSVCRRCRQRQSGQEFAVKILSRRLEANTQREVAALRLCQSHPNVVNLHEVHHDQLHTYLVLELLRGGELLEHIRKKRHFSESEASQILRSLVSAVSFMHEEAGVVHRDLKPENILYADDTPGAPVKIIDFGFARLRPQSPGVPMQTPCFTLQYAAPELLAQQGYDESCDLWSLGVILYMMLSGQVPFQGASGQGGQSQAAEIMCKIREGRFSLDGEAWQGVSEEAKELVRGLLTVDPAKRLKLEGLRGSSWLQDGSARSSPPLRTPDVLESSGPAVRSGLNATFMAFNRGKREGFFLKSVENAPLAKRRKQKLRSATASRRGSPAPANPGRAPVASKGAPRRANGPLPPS

Compound: Cc1cc([C@@H](C)Nc2ccccc2C(=O)O)c2nc(N3CCOCC3)cc(=O)n2c1 [AZD-6482]
- % of control [1]: 89%
- % of control [2]: 100%

Compound: COc1cc(Nc2nc(C)cc(-c3cnn4nc(OC)ccc34)n2)cc(C(F)(F)F)c1
- % of control [3]: 67%
- % of control [4]: 95%

- % of inhibition [5]: 0.853%
Compound: CC[C@@H]1[C@H](F)C(=O)N[C@@H]1COc1nccc2cc(C(N)=O)c(OC)cc12 [ZIMLOVISERTIB]

Compound: COCC(=O)NC/C=C/c1ccc2ncnc(Nc3ccc(Oc4ccc(C)nc4)c(C)c3)c2c1 [CP-724714]
- % of control [6]: 96%
- % of control [7]: 92%

- % of inhibition [8]: 22%
Compound: Cc1ccc(-c2ccc3c(ccc4sc5c(c43)NC[C@@H](C)NC5=O)n2)cn1

Compound: CNC(=O)Nc1ccc(-c2nc(N3CC4CCC(C3)O4)c3cnn(C4CCC5(CC4)OCCO5)c3n2)cc1
- % of control [9]: 100%

Compound: O=C(NOC[C@H](O)CO)c1ccc(F)c(F)c1Nc1ccc(I)cc1F
- % of control [10]: 100%
